Source: US20130317214A1, “METHOD FOR PRODUCING MALEATE USING WET CRYSTAL” (KYORIN PHARMACEUTICAL CO., LTD., priority 2010, published 2013)

Key:
[1] = Stability test of compound (2) (physical properties); assay type: physicochemical; details: for physical properties when stored under a condition of 30° C.: storage time not given
[2] = Stability test of compound (2) (powder X-ray diffraction); assay type: physicochemical; details: sealed in a brown bottle, stored at 25° C. for 2 weeks and 4 weeks
Description: A filling section of a plate sample holder made of glass was filled with a sample, and powder x-ray diffraction of the sample was then measured using RINT2200 powder x-ray diffractometer manufactured by Rigaku Corporation.
Tube current: 36 mA Tube voltage: 40 kV Scanning rate: 2°/min wavelength: 1.5405 Å (Kα1), 1.5443 Å (Kα2), 1.3922 Å (Kβ1) Divergence slit: 1° Receiving slit: 0.15 mm Scattering slit: 1° Anticathode: copper Scanning range: 5 to 40°
The wet crystal of the compound (2) (Example 1) and the dried product (Reference Example 1) were each sealed in a brown bottle, and stored at 25° C. for 2 weeks and 4 weeks. After the storage, the powder x-ray diffraction of each sample was measured in accordance with the method of Test Example 1.

Row | Compound | physical properties when stored under a condition of 30° C. [1] | crystal state by powder x-ray diffraction after storage [2] | physical properties on 3 days after the storage at 30° C. ([1]; sealed in a brown bottle, 3 days)
1 | CCc1cc(OC)cc2nc(-c3cccnc3N3CC[C@H](N(C)C)C3)oc(=O)c12 [wet crystal of the compound (2)] | the state of white powder was maintained | change in the crystal state of the wet crystal of the compound (2) was not observed | 
2 | CCc1cc(OC)cc2nc(-c3cccnc3N3CC[C@H](N(C)C)C3)oc(=O)c12 [dried product of the compound (2)] | changed into a glassy solid | complete amorphous form | changed into a glassy mass
